In the assay the test system is P. falciparum 3D7 growth, pLDH absorbance. As to the kind of experiment: P. falciparum 3D7 growth inhibition, dose response, strain 3D7 (AID 2305).

Several values for one entry are separate records, joined by “and”; a condition that tells them apart may be missing. Equal values may be shown once.

Regarding `Cc1ncccc1C(=O)Nc1cccc(-c2cccc(-c3nc4c(C)cccc4[nH]3)c2)c1`, the IC50 came to 960 nM.
Regarding `C=CCOc1ccc(-c2c(C)[nH]c(C)c(Br)c2=O)cc1`, the IC50 came out at 280 nM.
The same measure for `CCN(CCNC(=O)Cn1c(C)cc2cc([N+](=O)[O-])ccc21)c1cccc(C)c1`: 1010 nM; for `O=C(Nc1cccc([N+](=O)[O-])c1)N(Cc1ccc(Cl)c(Cl)c1)C1CCNCC1`: 720 nM.
Consider `CCC(C)OC(=O)C1=C(C)NC2=C(C(=O)CC(c3ccc(OC)c(OC)c3)C2)C1c1cccc(O)c1` (stereo not drawn), for which the IC50 was determined as 190 nM.
On to `COc1ccc2c(NN=Cc3ccccc3F)ccnc2c1`, for which the IC50 was determined as 210 nM.
For the molecule `COc1ccc(C2CC(c3cccs3)=NN2C(=O)c2ccco2)cc1OC` (stereo not drawn), the IC50 turned out to be 170 nM.
To `Cn1c(=N)n(CC(=O)N2CCc3ccc(Cl)cc3C2Cc2ccc(Cl)c(Cl)c2)c2ccccc21` (stereo not drawn) belongs 870 nM.
For the molecule `CN(C)C[C@H](O)[C@@H](c1ccccc1)c1ccc(Cl)cc1`, the IC50 was found to be 50 nM.
To `COc1ccc(S(=O)(=O)N2CCC(NS(=O)(=O)c3ccc(F)cc3)CC2)cc1` belongs 1330 nM; to `CCc1ccc(NC(=O)c2cccc(CN3CCCN(CC4CCCCC4)CC3)c2)cc1`, 950 nM; to `CC(c1cccc(S(=O)(=O)NCc2cccc(C(F)(F)F)c2)c1)N1CCC(N2CCCCC2)CC1` (stereo not drawn), 690 nM.
Take `O=C(Nc1ccc(-c2nc3ccccc3[nH]2)cc1)c1ccc([N+](=O)[O-])s1`: the IC50 was found to be 250 nM.
Take `CC(C)N1CCCN(C(=O)C2CCN(c3ccc(C(=O)N4CCCC4)cn3)CC2)CC1`: the IC50 amounted to 1060 nM.
Molecule `Cc1cc(=O)c2cc(Oc3cccc(OC(F)(F)F)c3)ccc2[nH]1` showed an IC50 of 860 nM. The IC50 values of the last two molecules are within 1.5-fold of each other.
Regarding `CCCCN(CCCC)CCNC(=O)c1ccc(-c2nc3ccc(Cl)cc3[nH]2)c(OCC)c1`, the IC50 worked out at 570 nM.
The molecule `CNCCNCc1ccc(-c2ccc(-c3nc4c(C)cccc4[nH]3)cc2)cc1` registered an IC50 of 670 nM.
`O=[N+]([O-])c1cccc(NC(=S)N2CCCN(Cc3ccc(C(F)(F)F)cc3)CC2)c1` yielded an IC50 of 1200 nM. Compared with the last molecule, the IC50 is about 1.8-fold higher.
`CC(C)c1sc(N2CCN(C)CC2)nc1C(=O)Nc1cccc2c1CCCC2` yielded an IC50 of 1280 nM.
`CN(Cc1cccc(C#N)c1)C1CCN(c2cc(NC(=O)c3cccc(F)c3)ccn2)CC1` gave an IC50 of 930 nM.
`Cc1cccc2[nH]c(-c3cc(-c4cccc(Cl)c4)cnc3N)nc12`: the IC50 came out at 120 nM.
To `CS(=O)(=O)Cc1ccc(Nc2nccc(-c3c(-c4cccc(C(=O)Nc5c(F)cccc5F)c4)nn4ccccc34)n2)cc1` belongs 530 nM; to `O=C(C=C1c2ccccc2-c2ccccc21)NC1CCC(CN2CCC(c3c[nH]c4ccccc34)CC2)CC1` (stereo not drawn), 790 nM and 700 nM; to `COc1ccc(OC)c(Cc2cnc3nc(N)nc(N)c3c2C)c1`, 10 nM.
`CCCCN1Cc2c(n(CC(=O)Nc3ccccc3)c3cc(-c4ccccc4)nn3c2=O)C1=O` came in with an IC50 of 810 nM. Against the preceding molecule, the IC50 is about 81-fold higher.
Molecule `Cc1cccc2[nH]c(-c3ccc(-c4cccc(CNCC5CCCO5)c4)cc3)nc12` (stereo not drawn) had an IC50 of 700 nM.
With `CC1CN(c2ccc(NC(=O)c3cccs3)cc2)CCN1Cc1cccc(F)c1` (stereo not drawn), the IC50 was 490 nM.
In turn, `CCNc1cc(C)nc(Nc2ccc(NC(=O)c3c(F)cccc3Cl)cc2)n1` came in with a 50% inhibitory concentration (IC50) of 1120 nM.
`CN1CCN(CC(O)CNC(=O)Nc2ccc(Cl)cc2)CC1` (stereo not drawn) came in with an IC50 of 230 nM.
For `CC(C)(C)Oc1ccc(C[C@@H]2NC3(C(=O)N(Cc4ccc(Cl)c(Cl)c4)c4ccccc43)C3C(=O)N(c4ccc(Br)cc4)C(=O)C32)cc1` (stereo partly drawn), the IC50 amounted to 1040 nM.
To `CCCCCCN1CCCN(Cc2ccc(C(=O)Nc3cccc(CC)c3)cc2)CC1` belongs 670 nM; to `O=C(Nc1cc(F)cc(-c2cccnc2)c1)c1ccc2c(=O)n(Cc3ccccc3)cnc2c1`, 1330 nM.
Molecule `CCCc1cc(C)ccc1OCCCON1C(NC(=O)OCC)=NC(NC(=O)OCC)=NC1(C)C` registered an IC50 of 40 nM.
`Cc1ccc(Cn2ncc(N3CCC(N)CC3)c(Cl)c2=O)cc1NC(=O)Nc1ccc(-c2ccccc2)cc1`: the IC50 stood at 920 nM.
Regarding `COc1ccc(N2CCN(CCCC/C=C/c3ccc(NC(=O)c4cc(Cl)cc(Cl)c4)cc3)CC2)c(OC)c1`, the IC50 was found to be 660 nM.
Molecule `CC(C)c1ccc(NC(=O)Nc2ccc(CCNCCCc3ccccc3)cc2)cc1` displayed an IC50 of 760 nM.
For the molecule `CC(CN1CCN(C)CC1)C(=O)Nc1cccc(-c2ccc(-c3nc4ccc(F)cc4[nH]3)cc2)c1` (stereo not drawn), the IC50 worked out at 810 nM.
`Cc1ccc(/C=C/C(=O)NC2CCC(CN3CCC(c4c[nH]c5ccccc45)CC3)CC2)cc1C` (stereo not drawn): the IC50 is 820 nM and 830 nM.
Molecule `CCNc1cc(C)nc(Nc2ccc(NC(=O)C3CCCC3)cc2)n1` gave a half-inhibitory concentration (IC50) of 1120 nM.
`O=C(NCC(CCCN1CCC(c2c[nH]c3ccccc23)CC1)c1ccccc1)Nc1ccc(Cl)c(Cl)c1` (stereo not drawn) came in with an IC50 of 790 nM.
`O=C1Nc2cccc3c2C1(CCCCN1CCC(c2c(-c4ccc(F)cc4)[nH]c4ccccc24)CC1)CCC3` (stereo not drawn) displayed an IC50 of 1190 nM.
`COc1ccc(CNCc2ccc(F)cc2)cc1-c1ccc(S(=O)(=O)NCCN2CCCC2)cc1` gave a half-inhibitory concentration (IC50) of 1040 nM. The IC50 values of the last two molecules are within 1.5-fold of each other.
In turn, `C[C@@H](Oc1cc(-n2cnc3ccc(NC(=O)NC(C)(C)C)cc32)sc1C(N)=O)c1ccccc1Cl` came in with an IC50 of 330 nM.
Molecule `CCOC(=O)C(CO)NC(=O)c1ccc([N+](=O)[O-])o1` (stereo not drawn) had an IC50 of 290 nM.
`Cc1cccc2[nH]c(-c3ccc(-c4cccc(CNC5CCN(C)CC5)c4)s3)nc12`: the IC50 amounted to 180 nM.
`Nc1nc2ccc(CN(C=O)c3ccc(C(=O)N[C@@H](CCC(=O)O)C(=O)O)cc3)cc2c(=O)[nH]1` displayed an IC50 of 180 nM.
To `N=C(N)c1ccc(OCc2cccc(COc3ccc(C(=N)N)cc3I)c2)c(I)c1` belongs 340 nM.
`CSc1ccc(C=CC(=O)NC(=O)c2ccccc2O)cc1`: the IC50 is 290 nM. The IC50 values of the last two molecules are within 1.5-fold of each other.
To `Cc1c(C)n(C2CCCC2)c2ncnc(OC3CCN(CC(=O)NC4CC4)CC3)c12` belongs 790 nM; to `CN1CCN(c2ccnc3ccc(NC(=O)Cc4ccc(OCc5ccccc5)cc4)cc23)CC1`, 630 nM; to `Cc1ccc(-c2ccc(Cl)cc2Oc2cnc(N)nc2N)o1`, 1080 nM.
`Cc1cccc(C=NNc2cc(C)nc3ccc(F)cc23)n1` had an IC50 of 1000 nM.
For the molecule `O=C(/C=C/c1ccc(Cl)c(Cl)c1)NC1CCN(Cc2ccc(O)cc2)C1` (stereo not drawn), the IC50 came to 950 nM.
With `CS(=O)(=O)c1cccc(-c2cnc3[nH]cc(-c4cccc(CCN)c4)c3c2)c1`, the IC50 came to 1560 nM.
To `Cc1ccc(C2(CN3CCC(NC(=O)c4[nH]ncc4Cl)CC3)CCCCC2)cc1` belongs 320 nM.
To `CCc1ccc(CN2CCC(NC(=O)c3cc(-c4ccc(N(C)C)cc4)cs3)C2)cc1` (stereo not drawn) belongs 1440 nM.
Consider `Cc1nc(NC2=NCN(CCCN3CCOCC3)CN2)nc2c(C)cccc12`, for which the IC50 amounted to 1130 nM.
To `CCN(CC)CCCC(C)Nc1c(-c2ccc(C)cc2)cnc2ccccc12` (stereo not drawn) belongs 200 nM.
Molecule `O=C(NCc1ccc(F)cc1)c1cnc(N2CCN(c3ccncc3)CC2)c(Cl)c1` returned an IC50 of 1390 nM.
In turn, `CCc1ccc(NC(=O)N(CCCn2ccnc2)Cc2csc(-c3ccc(CNCc4ccccc4)cc3)n2)cc1` came in with an IC50 of 760 nM.
In the case of `O=C1CCCN1CCCNCc1ccc(-c2ccc(-c3nc4ccc(C(F)(F)F)cc4[nH]3)cc2)cc1`, the IC50 amounted to 580 nM. This IC50 and that of the molecule before are within 1.5-fold of each other.
With `CC(C)c1ccc(O)cc1Nc1ccnc2ccc(C(F)(F)F)cc12`, the IC50 was 680 nM.
For the molecule `CNCCCNCc1ccc(-c2ccc(F)c(Cl)c2)o1`, the IC50 is 750 nM. This IC50 and that of the molecule before are within 1.5-fold of each other.

For the origin of these results see PubChem BioAssay AID2305 (GlaxoSmithKline (GSK), 2010).
